According to patent US10597388B2, “Pyridazinone herbicides” (FMC CORPORATION, priority 2014, dated 2020):

How the values were obtained:
Experiment in all cases: Test D controlled growth environment herbicide test, pre- and postemergence
Format in all cases: in vivo
[1] = tested on: field violet (Viola arvensis)
Method in brief: (§1)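 Species sown in silt loam and sprayed preemergence, or grown in peat-based medium to 2–18 cm (1- to 4-leaf stage) and sprayed postemergence, with compounds in non-phytotoxic solvent plus surfactant. Visual injury scored versus controls after 14–21 d in a controlled environment, 0 (no effect) to 100 (complete control).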

[2] = tested on: oat, wild (wild oat, Avena fatua)
Method in brief: as §1

[3] = tested on: foxtail, green (green foxtail, Setaria viridis)
Method in brief: as §1

[4] = tested on: mustard, wild (wild mustard, Sinapis arvensis)
Method in brief: as §1

[5] = tested on: wheat, winter (winter wheat, Triticum aestivum)
Method in brief: as §1

[6] = tested on: bluegrass (annual bluegrass, Poa annua)
Method in brief: as §1

[7] = tested on: barley, spring (spring barley, Hordeum vulgare)
Method in brief: as §1

[8] = tested on: wheat, spring (spring wheat, Triticum aestivum)
Method in brief: as §1

[9] = tested on: windgrass (Apera spica-venti)
Method in brief: as §1

[10] = tested on: pigweed (Amaranthus retroflexus)
Method in brief: as §1

kochia (Kochia scoparia) = tested on: kochia (Kochia scoparia)
Method in brief: as §1

[11] = tested on: deadnettle (henbit deadnettle, Lamium amplexicaule)
Method in brief: as §1

[12] = tested on: Russian thistle (Salsola kali)
Method in brief: as §1

[13] = Postemergence, 31 g ai/ha, scale 0 to 100 (0 no effect, 100 complete control)
[14] = Postemergence, 125 g ai/ha, visual rating on scale 0 (no effect) to 100 (complete control), 14 to 21 d
[15] = Postemergence, 250 g ai/ha, scale 0 to 100 (0 no effect, 100 complete control)
[16] = Preemergence, 62 g ai/ha, scale 0 to 100 (0 no effect, 100 complete control)
[17] = Preemergence, 125 g ai/ha, scale 0 to 100 (0 no effect, 100 complete control)
[18] = Preemergence, 250 g ai/ha, scale 0 to 100 (0 no effect, 100 complete control)
[19] = postemergence, 62 g ai/ha, scale 0 to 100, 0 no effect, 100 complete control

## COc1nn(C)c(=O)c(-c2c(C)ccc3ccccc23)c1OC(=O)OC(C)C [Compound 36]
[1]; [13]
  Field Violet plant response rating: 70
[1]; [14]
  Plant response rating, Field Violet: 90
[1]; [15]
  Plant response rating, Field Violet: 90
[1]; Preemergence, 31 g ai/ha
  Plant response rating (scale of 0 to 100), Field Violet: 15
[1]; [16]
  Plant response rating, Field Violet: 10
[1]; [17]
  Plant response rating, Field Violet: 70
[1]; [18]
  Plant response rating, Field Violet: 95
[1]; [19]
  Plant response rating, Field Violet: 85
[2]; [13]
  Oat, Wild plant response rating: 35
[2]; [14]
  Plant response rating, Oat, Wild: 85
[2]; [15]
  Plant response rating, Oat, Wild: 95
[2]; Preemergence, 31 g ai/ha
  Plant response rating (scale of 0 to 100), Oat, Wild: 35
[2]; [16]
  Plant response rating, Oat, Wild: 45
[2]; [17]
  Plant response rating, Oat, Wild: 75
[2]; [18]
  Plant response rating, Oat, Wild: 85
[2]; [19]
  Plant response rating, Oat, Wild: 80
[3]; [13]
  Foxtail, Green plant response rating: 35
[3]; [14]
  Plant response rating, Foxtail, Green: 80
[3]; [15]
  Plant response rating, Foxtail, Green: 90
[3]; Preemergence, 31 g ai/ha
  Plant response rating (scale of 0 to 100), Foxtail, Green: 45
[3]; [16]
  Plant response rating, Foxtail, Green: 25
[3]; [17]
  Plant response rating, Foxtail, Green: 70
[3]; [18]
  Plant response rating, Foxtail, Green: 75
[3]; [19]
  Plant response rating, Foxtail, Green: 45
[4]; [13]
  Mustard, Wild plant response rating: 100
[4]; [14]
  Plant response rating, Mustard, Wild: 100
[4]; [15]
  Plant response rating, Mustard, Wild: 100
[4]; Preemergence, 31 g ai/ha
  Plant response rating (scale of 0 to 100), Mustard, Wild: 45
[4]; [16]
  Plant response rating, Mustard, Wild: 85
[4]; [17]
  Plant response rating, Mustard, Wild: 85
[4]; [18]
  Plant response rating, Mustard, Wild: 90
[4]; [19]
  Plant response rating, Mustard, Wild: 100
[5]; [13]
  Wheat, Winter plant response rating: 0
[5]; [14]
  Plant response rating, Wheat, Winter: 5
[5]; [15]
  Plant response rating, Wheat, Winter: 15
[5]; Preemergence, 31 g ai/ha
  Plant response rating (scale of 0 to 100), Wheat, Winter: 0
[5]; [16]
  Plant response rating, Wheat, Winter: 0
[5]; [17]
  Plant response rating, Wheat, Winter: 0
[5]; [18]
  Plant response rating, Wheat, Winter: 0
[5]; [19]
  Plant response rating, Wheat, Winter: 0
[6]; [13]
  Bluegrass plant response rating: 10
[6]; [14]
  Plant response rating, Bluegrass: 40
[6]; [15]
  Plant response rating, Bluegrass: 35
[6]; Preemergence, 31 g ai/ha
  Plant response rating (scale of 0 to 100), Bluegrass: 0
[6]; [16]
  Plant response rating, Bluegrass: 15
[6]; [17]
  Plant response rating, Bluegrass: 10
[6]; [18]
  Bluegrass plant response rating: 15
[6]; [19]
  Plant response rating, Bluegrass: 15
[7]; [13]
  Plant response rating, Barley, Spring: 0
[7]; [14]
  Plant response rating, Barley, Spring: 0
[7]; [15]
  Plant response rating, Barley, Spring: 10
[7]; Preemergence, 31 g ai/ha
  Plant response rating (scale of 0 to 100), Barley, Spring: 0
[7]; [16]
  Plant response rating, Barley, Spring: 0
[7]; [17]
  Plant response rating, Barley, Spring: 0
[7]; [18]
  Barley, Spring plant response rating: 0
[7]; [19]
  Plant response rating, Barley, Spring: 0
[8]; [13]
  Wheat, Spring plant response rating: 0
[8]; [14]
  Plant response rating, Wheat, Spring: 0
[8]; [15]
  Plant response rating, Wheat, Spring: 10
[8]; Preemergence, 31 g ai/ha
  Plant response rating (scale of 0 to 100), Wheat, Spring: 0
[8]; [16]
  Plant response rating, Wheat, Spring: 0
[8]; [17]
  Plant response rating, Wheat, Spring: 0
[8]; [18]
  Plant response rating, Wheat, Spring: 30
[8]; [19]
  Plant response rating, Wheat, Spring: 0
[9]; [13]
  Windgrass plant response rating: 40
[9]; [14]
  Plant response rating, Windgrass: 70
[9]; [15]
  Plant response rating, Windgrass: 75
[9]; Preemergence, 31 g ai/ha
  Plant response rating (scale of 0 to 100), Windgrass: 0
[9]; [16]
  Plant response rating, Windgrass: 5
[9]; [17]
  Plant response rating, Windgrass: 5
[9]; [18]
  Plant response rating, Windgrass: 65
[9]; [19]
  Plant response rating, Windgrass: 50
[10]; [13]
  Pigweed plant response rating: 100
[10]; [14]
  Plant response rating, Pigweed: 100
[10]; [15]
  Plant response rating, Pigweed: 100
[10]; Preemergence, 31 g ai/ha
  Plant response rating (scale of 0 to 100), Pigweed: 55
[10]; [16]
  Plant response rating, Pigweed: 75
[10]; [17]
  Plant response rating, Pigweed: 100
[10]; [18]
  Plant response rating, Pigweed: 100
[10]; [19]
  Plant response rating, Pigweed: 100
Kochia (Kochia scoparia); [13]
  Kochia plant response rating: 85
Kochia (Kochia scoparia); [14]
  Plant response rating, Kochia: 100
Kochia (Kochia scoparia); [15]
  Plant response rating, Kochia: 100
Kochia (Kochia scoparia); Preemergence, 31 g ai/ha
  Plant response rating (scale of 0 to 100), Kochia: 0
Kochia (Kochia scoparia); [16]
  Plant response rating, Kochia: 25
Kochia (Kochia scoparia); [17]
  Plant response rating, Kochia: 45
Kochia (Kochia scoparia); [18]
  Plant response rating, Kochia: 60
Kochia (Kochia scoparia); [19]
  Plant response rating, Kochia: 95
[11]; [13]
  Deadnettle plant response rating: 80
[11]; [14]
  Plant response rating, Deadnettle: 100
[11]; [15]
  Plant response rating, Deadnettle: 100
[11]; Preemergence, 31 g ai/ha
  Plant response rating (scale of 0 to 100), Deadnettle: 0
[11]; [16]
  Plant response rating, Deadnettle: 0
[11]; [17]
  Plant response rating, Deadnettle: 50
[11]; [18]
  Plant response rating, Deadnettle: 85
[11]; [19]
  Plant response rating, Deadnettle: 100
[12]; [13]
  Russian Thistle plant response rating: 80
[12]; [14]
  Plant response rating, Russian Thistle: 85
[12]; [15]
  Plant response rating, Russian Thistle: 90
[12]; Preemergence, 31 g ai/ha
  Plant response rating (scale of 0 to 100), Russian Thistle: 0
[12]; [16]
  Plant response rating, Russian Thistle: 15
[12]; [17]
  Plant response rating, Russian Thistle: 10
[12]; [18]
  Plant response rating, Russian Thistle: 15
[12]; [19]
  Plant response rating, Russian Thistle: 85
